Patent US10711011B2, “Substituted oxazolidines as anti-bacterial agents” (BUGWORKS RESEARCH, INC., priority 2016, dated 2020)
Converted amounts (≈) assume the structure as drawn. Like-named read-outs stand apart in the source and are kept apart here.

Columns and labels:
[1] = system: S. aureus ATCC 29213; test: Minimum Inhibitory Concentration (MIC) in LB media; assay type: cell-based, Staphylococcus aureus; settings: Staphylococcus aureus, ATCC29213, LB Media
From the text: (§1) The compounds of Formula I are of interest due to their potent antibacterial effects. The ability of the invention compounds disclosed herein to achieve an antibacterial effect may be evaluated with regard to their ability to inhibit the growth of bacterial species like Escherichia coli ATCC 25922, Staphylococcus aureus ATCC 29213, Klebsiella pneumoniae ATCC 13883, Acinetobacter baumannii ATCC 19606, Pseudomonas aurigenosa ATCC 27853, Enterococcus faecalis ATCC 29212 and Enterococcus faecalis ATCC 29212 using an assay based on the following Minimum Inhibitory Concentration (MIC) protocol:
(§2) The test bacteria are grown in Luria Bertani Broth (HIMEDIA M1245), 25 grams of the powder is dissolved in 1000 ml distilled water and sterilized by autoclaving at 15 lbs pressure (121° C.) for 20 minutes. The medium sterility is checked by incubating at 37° C. for a period of 48 h.
(§3) Bacterial cultures that are stored as glycerol stocks at −80° C. are sub cultured on LB agar plates to obtain isolated colonies. A single colony of each strain is cultured in LB broth. The cultures are incubated at 37° C., 200 rpm till they reach an optical density (OD at 600 nm) of 0.8 to 1. […] Test compounds are dissolved in dimethyl sulfoxide (DMSO) to a stock concentration of 4 mg/ml. A twofold dilution series of this DMSO stock is prepared in a 96 well V bottom microtitre plate from rows A to H. A 3 μL volume of these dilutions are transferred to a 96-well flat bottom microtitre assay plate. Controls to monitor the effects of DMSO and media sterility are included. Each well is inoculated with 150 μL of the above diluted culture. The plates are incubated at 37° C. overnight in a humidified incubator. The following morning, the plates are read using a Spectrophotometer at 600 nm wavelength. […] The antibacterial activity (MIC) determined against representative Gram positive (S. aureus, E. faecalis) and Gram negative (E. coli, P. aurigenosa, K. pneumoniae and A. baumannii) pathogen were reported Table 1.

[2] = system: E. faecalis ATCC 29212; test: Minimum Inhibitory Concentration (MIC) in LB media; assay type: cell-based, Enterococcus faecalis; settings: Enterococcus faecalis, ATCC29212
From the text: as §1, §2, §3

[3] = system: E. coli ATCC 25922; test: Minimum Inhibitory Concentration (MIC) in LB media; assay type: cell-based, Escherichia coli; settings: Escherichia coli, ATCC25922, LB Media
From the text: as §1, §2, §3

[4] = system: P. aurigenosa ATCC 27853; test: Minimum Inhibitory Concentration (MIC) in LB media; assay type: cell-based, Pseudomonas aurigenosa; settings: Pseudomonas, ATCC27853, LB Media
From the text: as §1, §2, §3

[5] = system: K. pneumoniae ATCC 13883; test: Minimum Inhibitory Concentration (MIC) in LB media; assay type: cell-based, Klebsiella pneumoniae; settings: Klebsiella pneumoniae, ATCC13883, LB Media
From the text: as §1, §2, §3

[6] = system: A. baumannii ATCC 19606; test: Minimum Inhibitory Concentration (MIC) in LB media; assay type: cell-based, Acinetobacter baumannii; settings: Acinetobacter baumannii, ATCC19606, LB Media
From the text: as §1, §2, §3

[7] = target: E. coli DNA gyrase (Escherichia coli, UniProt P0AES4+P0AES6); test: biochemical; settings: supercoiling assay
[8] = Mouse intravenous pharmacokinetics; assay type: in vivo, BALB/c mice; settings: 2 mg/kg
Description: (§4) To assess the Oral and Intravenous pharmacokinetic profile of Example 13, pharmacokinetics (PK) of Example 13 was characterized in BALB/c mice following single intravenous (i.v.) dose of 2 mg/kg and single escalating oral doses of 2, 10, 50 and 100 mg/kg, respectively. This study was performed following all ethical practices as laid down in the guidelines for animal care (Registration number No. 1852/PO/Rc/S/16/CPCSEA). The study was approved by the Institutional Animals Ethics Committee (IAEC) of the test facility. For IVPK in BALB/c mice, the formulation used was DMSO: PEG400: Ethanol: Water (10:20:10:60 v/v) and Example 13 administered as solution. For POPK, the formulation used was 0.1% Tween80 in 0.25% CMC and Example 13 administered as suspension through an oral gavage. The plasma (mice) samples were analyzed by LC-MS/MS. PK parameters were estimated by non-compartmental analysis in Phoenix WinNonlin 6.4 The results of the per-oral and intravenous PK study of Example 13 are presented in Table 4 and 5

[9] = Mouse oral pharmacokinetics; assay type: in vivo, BALB/c mice; design: AUC/Dose: unit not given beside the values; settings: for Cmax/dose: in (µg/mL)/(mg/kg)
Description: as §4

[10] = BALB/c, mouse, plasma, iv, mice
[11] = BALB/c, mouse, plasma, mice, single oral dose 2 mg/kg
[12] = BALB/c, mouse, plasma, mice, single oral dose 10 mg/kg
[13] = BALB/c, mouse, plasma, mice, single oral dose 50 mg/kg
[14] = BALB/c, mouse, plasma, mice, single oral dose 100 mg/kg
[15] = mice, single oral dose 10 mg/kg
[16] = mice, single oral dose 50 mg/kg
[17] = mice, single oral dose 100 mg/kg

Chain of E. coli DNA gyrase (P0AES4 whole entry, one chain of several): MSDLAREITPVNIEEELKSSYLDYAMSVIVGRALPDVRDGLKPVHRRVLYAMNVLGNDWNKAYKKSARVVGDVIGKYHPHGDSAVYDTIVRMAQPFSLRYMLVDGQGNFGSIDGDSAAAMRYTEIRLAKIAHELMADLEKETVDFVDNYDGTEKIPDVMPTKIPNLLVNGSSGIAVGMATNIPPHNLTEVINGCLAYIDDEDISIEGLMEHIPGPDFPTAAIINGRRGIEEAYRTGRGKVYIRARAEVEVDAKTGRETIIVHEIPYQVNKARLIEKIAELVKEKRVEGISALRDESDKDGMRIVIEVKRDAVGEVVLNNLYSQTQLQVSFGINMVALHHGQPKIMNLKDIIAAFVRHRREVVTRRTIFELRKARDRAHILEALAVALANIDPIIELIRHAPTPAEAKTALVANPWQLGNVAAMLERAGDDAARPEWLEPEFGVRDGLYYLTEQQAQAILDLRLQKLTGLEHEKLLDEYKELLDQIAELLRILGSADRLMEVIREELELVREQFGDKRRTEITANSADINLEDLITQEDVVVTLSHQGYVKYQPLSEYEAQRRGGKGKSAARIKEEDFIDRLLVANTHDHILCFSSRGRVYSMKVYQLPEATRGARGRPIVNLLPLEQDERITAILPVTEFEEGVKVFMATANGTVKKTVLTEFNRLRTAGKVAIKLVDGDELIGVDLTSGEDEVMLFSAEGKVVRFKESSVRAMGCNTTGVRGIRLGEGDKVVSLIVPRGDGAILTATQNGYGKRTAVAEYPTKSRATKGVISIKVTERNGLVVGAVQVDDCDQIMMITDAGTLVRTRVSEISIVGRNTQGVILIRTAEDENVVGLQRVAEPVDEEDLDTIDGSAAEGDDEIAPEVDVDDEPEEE

CN1C(=O)Cc2ccc(F)c(CCNCCC3CN(c4ccc5c(n4)NC(=O)CO5)C(=O)O3)c21 (single isomer, unassigned) [Example 13, 6-(5-(2-((2-(6-fluoro-1-methyl-2-oxoindolin-7-yl)ethyl)amino)ethyl)-2-oxooxazolidin-3-yl)-2H-pyrido[3,2-b][1,4]oxazin-3(4H)-one]
MIC [1]: 0.03 µg/mL (≈ 0.0639 µM) | MIC [2]: 0.25 µg/mL (≈ 0.533 µM) | MIC [3]: 0.06 µg/mL (≈ 0.128 µM) | MIC [4]: 0.5 µg/mL (≈ 1.07 µM) | MIC [5]: 0.125 µg/mL (≈ 0.266 µM) | MIC [6]: 0.06 µg/mL (≈ 0.128 µM) | IC50 [7]: 50 nM | clearance ([8]; BALB/c, mouse, plasma, iv, BALB/c mice, single i.v. dose of 2.0 mg/kg, read-out: systemic clearance (converted)): 95 mL/min/kg | Vd ([8]; BALB/c, mouse, plasma, iv, BALB/c mice, single i.v. dose of 2.0 mg/kg, read-out: volume of distribution at steady state): 13.3 L/kg | half-life [8, 10]: 1.7 h | clearance ([8]; BALB/c, mouse, plasma, iv, mice, i.v., read-out: CL (converted)): 94.8 mL/min/kg | Vd ([8]; BALB/c, mouse, plasma, iv, mice, i.v., read-out: Vss): 13.3 L/kg | AUC(0-inf) [8, 10]: 352 ng·h/mL | AUC(0-t) [8, 10]: 352 ng·h/mL | AUC (% Extrap) ([8]; mice, i.v.): 0.002% | Ke ([8]; mice, i.v.): 0.403 h⁻¹ | t1/2 ([8]; mice, i.v.): 1.718 h | Cmax ([9]; BALB/c, mouse, plasma, po, 2 mg/kg, mice, single oral dose 2 mg/kg): 6 ng/mL | AUC(0-inf) ([9]; BALB/c, mouse, plasma, po, 2 mg/kg, mice, single oral dose 2 mg/kg, read-out: AUC0-∞): 70 ng·h/mL | half-life ([9]; BALB/c, mouse, plasma, po, 2 mg/kg, mice, single oral dose 2 mg/kg, read-out: t1/2 (converted)): 5.63 h | Cmax ([9]; BALB/c, mouse, plasma, po, 10 mg/kg, mice, single oral dose 10 mg/kg): 108 ng/mL | AUC(0-inf) ([9]; BALB/c, mouse, plasma, po, 10 mg/kg, mice, single oral dose 10 mg/kg, read-out: AUC0-∞): 335 ng·h/mL | half-life ([9]; BALB/c, mouse, plasma, po, 10 mg/kg, mice, single oral dose 10 mg/kg, read-out: t1/2 (converted)): 2.13 h | Cmax ([9]; BALB/c, mouse, plasma, po, 50 mg/kg, mice, single oral dose 50 mg/kg): 740 ng/mL | AUC(0-inf) ([9]; BALB/c, mouse, plasma, po, 50 mg/kg, mice, single oral dose 50 mg/kg, read-out: AUC0-∞): 1970 ng·h/mL | half-life ([9]; BALB/c, mouse, plasma, po, 50 mg/kg, mice, single oral dose 50 mg/kg, read-out: t1/2 (converted)): 1.6 h | AUC(0-inf) ([9]; BALB/c, mouse, plasma, po, 100 mg/kg, BALB/c mice, single oral doses of 2, 10, 50 and 100 mg/kg, read-out: AUC0-∞, range over oral doses): 70 to 4820 ng·h/mL | Clast ([9]; BALB/c, mouse, plasma, po, 100 mg/kg, BALB/c mice, single oral doses of 2, 10, 50 and 100 mg/kg, read-out: Cmax, range over oral doses): 4 to 72 ng/mL | half-life ([9]; BALB/c, mouse, plasma, po, 100 mg/kg, BALB/c mice, single oral doses of 2, 10, 50 and 100 mg/kg, read-out: t1/2, range over oral doses): 1.4 to 5.6 h | Cmax ([9]; BALB/c, mouse, plasma, po, 100 mg/kg, mice, single oral dose 100 mg/kg): 2380 ng/mL | AUC(0-inf) ([9]; BALB/c, mouse, plasma, po, 100 mg/kg, mice, single oral dose 100 mg/kg, read-out: AUC0-∞): 4820 ng·h/mL | half-life ([9]; BALB/c, mouse, plasma, po, 100 mg/kg, mice, single oral dose 100 mg/kg, read-out: t1/2 (converted)): 1.42 h | AUC(0-t) [9, 11]: 70 ng·h/mL | Tmax [9, 11]: 1 h | concentration at 24 h ([9]; BALB/c, mouse, plasma, mice, single oral dose 2 mg/kg, read-out: Clast): 4 ng/mL | AUC(0-t) [9, 12]: 311 ng·h/mL | Tmax [9, 12]: 0.5 h | concentration at 8 h ([9]; BALB/c, mouse, plasma, mice, single oral dose 10 mg/kg, read-out: Clast): 9 ng/mL | AUC(0-t) [9, 13]: 1900 ng·h/mL | Tmax [9, 13]: 0.5 h | concentration at 8 h ([9]; BALB/c, mouse, plasma, mice, single oral dose 50 mg/kg, read-out: Clast): 28 ng/mL | AUC(0-t) [9, 14]: 4700 ng·h/mL | Tmax [9, 14]: 1 h | concentration at 8 h ([9]; BALB/c, mouse, plasma, mice, single oral dose 100 mg/kg, read-out: Clast): 72 ng/mL | AUC/Dose ([9]; mice, single oral dose 2 mg/kg): 0.036 | F ([9]; mice, single oral dose 2 mg/kg): 20.6% | Ke ([9]; mice, single oral dose 2 mg/kg): 0.123 h⁻¹ | Tlast ([9]; mice, single oral dose 2 mg/kg): 24 h | Cmax/dose ([9]; mice, single oral dose 2 mg/kg): 0.003 | AUC/Dose [9, 15]: 0.034 | F [9, 15]: 19.0% | Ke [9, 15]: 0.325 h⁻¹ | Tlast [9, 15]: 8 h | Cmax/dose [9, 15]: 0.011 | AUC/Dose [9, 16]: 0.039 | F [9, 16]: 22.3% | Ke [9, 16]: 0.433 h⁻¹ | Tlast [9, 16]: 8 h | Cmax/dose [9, 16]: 0.015 | AUC/Dose [9, 17]: 0.048 | F [9, 17]: 27.4% | Ke [9, 17]: 0.489 h⁻¹ | Tlast [9, 17]: 8 h | Cmax/dose [9, 17]: 0.024 | bioavailability ([9]; mouse, plasma, BALB/c mice, single oral doses of 2, 10, 50 and 100 mg/kg, read-out: oral bioavailability, range over oral doses): 19 to 27%
